Data reported in article PMC9501525, “Conjugation of a Cationic Cell-Penetrating Peptide with a Novel Kunitzin-like Trypsin Inhibitor: New Insights for Enhancement of Peptide Bioactivities” (Pharmaceutics, 2022).
Peptide text beside a SMILES is read from it.

Columns and labels:
trypsin = molecular target: T1, trypsin (Bos taurus, UniProt P00760); test: Trypsin inhibition determination (fluorogenic substrate, Morrison Ki); type: biochemical; conditions: Morrison equation; substrate Phe-Pro-Arg-AMC in PBS; Km = 67.38 μM, [S] = 42.86 μM, Et = 0.0020 μM; peptide 0.1–100 µM; nine replications in three experiments; N.I. = no inhibitory effect
T1 construct: gene PRSS1
T1 sequence (P00760 24-246): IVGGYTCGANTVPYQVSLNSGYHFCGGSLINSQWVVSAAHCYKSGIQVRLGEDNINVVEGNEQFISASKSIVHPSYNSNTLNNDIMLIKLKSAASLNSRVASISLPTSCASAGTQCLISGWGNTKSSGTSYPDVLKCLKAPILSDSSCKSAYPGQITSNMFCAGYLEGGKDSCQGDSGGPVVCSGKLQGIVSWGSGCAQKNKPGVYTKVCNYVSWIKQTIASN
Procedure: (§1) Phe-Pro-Arg-AMC (Bachem, Merseyside, UK) and succinyl-Ala-Ala-Pro-Phe-AMC (Bachem, Merseyside, UK) were used as substrates for trypsin and chymotrypsin inhibition determinations, respectively. Serial peptide dilutions (0.1–100 µM in phosphate buffered saline (PBS)) were incubated with 180 µL of substrate solution (50 µM in PBS) in a black 96-well plate under dark conditions for 10 min. Immediately prior to measurement, 10 µL of trypsin/chymotrypsin working solution (0.1 µM in PBS) was added to each well (final volume of 210 µL) in the plate. Subsequently, the fluorescence intensity was measured with the FLUO star OPTIMA plate reader (BMG Labtech, Ortenberg, Germany). The whole measurement process lasted for 30 min and was carried out at an emission wavelength of 460 nm and an excitation wavelength of 395 nm. The inhibition curves of trypsin and chymotrypsin were analyzed by non-linear regression using the Morrison equation in Prism 9 (Trypsin Km = 67.38 μM; Chymotrypsin Km = 17.15 μM; [S] = 42.86 μM; Et = 0.0020 μM).

chymotrypsin = chymotrypsin (Bos taurus, UniProt P00766); test: Chymotrypsin inhibition determination (fluorogenic substrate, Morrison Ki); type: biochemical; conditions: Morrison equation; substrate succinyl-Ala-Ala-Pro-Phe-AMC in PBS; Km = 17.15 μM, [S] = 42.86 μM, Et = 0.0020 μM; peptide 0.1–100 µM; nine replications in three experiments; N.I. = no inhibitory effect
Procedure: as §1

S. aureus (ATCC 6538) = type: cell-based, Staphylococcus aureus; conditions: for MIC: MHB, 5 × 10^5 CFU/mL, overnight, absorbance 550 nm; for MBC: clear wells spotted onto MHA
Procedure: (§2) The antimicrobial efficacy screening of the purified peptides was performed by MIC/MBC experiments on the following six different bacteria and an opportunistic pathogenic yeast: E. coli (ATCC 8739), Klebsiella pneumoniae (K. pneumoniae) (ATCC 43816), Pseudomonas aeruginosa (P. aeruginosa) (ATCC 9027), Staphylococcus aureus (S. aureus) (ATCC 6538), methicillin-resistant Staphylococcus aureus (MRSA) (NCTC 12493), Enterococcus faecium (E. faecium) (NCTC 12697), and Candida albicans (C. albicans) (ATCC 10231). First, frozen beads of respective cultures were inoculated into Mueller Hinton broth (MHB) medium and incubated overnight at 37 °C. Next, 500 µL of respective suspensions were added to the fresh MHB medium for incubation, and then sub-cultured until reaching the log growth phase, which was determined by measuring the absorbance of cultures at a wavelength of 550 nm. Then, the subcultures were diluted to 5 × 10^5 CFU/mL and 99 µL of suspension was removed and mixed with 1 µL of peptide solution at different concentrations (double-dilution of 12,800 to 100 µM) in a 96-well plate. The blank control, vehicle control, growth control, and the positive control groups were prepared according to the conditions mentioned previously. The peptide solutions were added to the plate and mixed with the diluted microbial suspensions. After overnight incubation, the absorbance at 550 nm of each well was measured with a Synergy HT plate reader (Biotech, Minneapolis, MN, USA). Subsequently, the samples in each clear well were spotted onto Mueller Hinton agar (MHA) plates for the MBC assays of the tested peptides.

MRSA (NCTC 12493) = type: cell-based, methicillin-resistant Staphylococcus aureus; conditions: for MIC: MHB, 5 × 10^5 CFU/mL, overnight; for MBC: clear wells spotted onto MHA
Procedure: as §2

E. coli (ATCC 8739) = type: cell-based, Escherichia coli; conditions: for MIC: MHB, 5 × 10^5 CFU/mL, overnight; for MBC: clear wells spotted onto MHA
Procedure: as §2

[1] = tested on: P. aeruginosa (ATCC 9027); type: cell-based, Pseudomonas aeruginosa; conditions: for MIC: MHB, 5 × 10^5 CFU/mL, overnight; for MBC: clear wells spotted onto MHA
Procedure: as §2

E. coli = test: Salt sensitivity assay (MIC in the presence of salts); type: cell-based, Escherichia coli; conditions: for MIC in the presence of NH4Cl: MHB + 6 μM NH4Cl; for MIC in the presence of NH4Cl / MIC in the presence of KCl / MIC in the presence of NaCl / MIC in the presence of PBS: 18–20 h; for MIC in the presence of MgCl2: MHB + 1 mM MgCl2, 18–20 h; for MIC in the presence of CaCl2: MHB + 2.5 mM CaCl2, 18–20 h; for MIC in the presence of FeCl3: MHB + 4 mM FeCl3, 18–20 h; for MIC in the presence of KCl: MHB + 4.5 mM KCl; for MIC in the presence of ZnCl2: MHB + 8 mM ZnCl2, 18–20 h; for MIC in the presence of NaCl: MHB + 150 mM NaCl; for MIC in the presence of PBS: MHB, PBS (no added salt), 37 °C
Procedure: To determine the salt sensitivity of peptides, E. coli was used to detect the changes in MIC values of peptides under different salt conditions. The bacterial culture method used was similar to the MIC experimental method described earlier. Different concentrations of salts (150 mM NaCl, 4.5 mM KCl, 6 μM NH4Cl, 1 mM MgCl2, 1 mM MgCl2, 8 mM ZnCl2, 2.5 mM CaCl2, 4 mM FeCl3) were added to the MHB to examine the effects of each salt on the anti-E. coli activities of the peptides, as described in a previous study. Then, the bacterial dilution with salt was mixed well with peptides of different concentrations, similar to the MIC/MBC experiments, and cultured at 37 °C. After 18–20 h of incubation, the absorbance of each well was measured at 550 nm using the Synergy HT plate reader.

| Structure (SMILES) | Ki (trypsin) [µM] | Chymotrypsin Ki (chymotrypsin) | MIC (S. aureus (ATCC 6538)) [µM] | MBC (S. aureus (ATCC 6538)) [µM] | MIC (MRSA (NCTC 12493)) [µM] | MBC (MRSA (NCTC 12493)) [µM] | MIC (E. coli (ATCC 8739)) [µM] | MBC (E. coli (ATCC 8739)) | MIC [1] [µM] | MBC [1] [µM] | MIC in the presence of NH4Cl (E. coli) [µM] | MIC in the presence of MgCl2 (E. coli) [µM] | MIC in the presence of CaCl2 (E. coli) [µM] | MIC in the presence of FeCl3 (E. coli) [µM] | MIC in the presence of KCl (E. coli) [µM] | MIC in the presence of ZnCl2 (E. coli) [µM] | MIC in the presence of NaCl (E. coli) [µM] | MIC in the presence of PBS (E. coli) [µM] | Trypsin Ki (trypsin) | Ki (chymotrypsin) [µM] |
| --- | --- | --- | --- | --- | --- | --- | --- | --- | --- | --- | --- | --- | --- | --- | --- | --- | --- | --- | --- | --- |
| CC(C)C[C@H](NC(=O)[C@H](CCCCN)NC(=O)[C@H](C)NC(=O)[C@H](C)NC(=O)CNC(=O)CNC(=O)[C@H](CCCNC(=N)N)NC(=O)[C@H](CCCNC(=N)N)NC(=O)[C@H](CCCNC(=N)N)NC(=O)[C@H](CCC(N)=O)NC(=O)[C@H](CCCNC(=N)N)NC(=O)[C@H](CCCNC(=N)N)NC(=O)[C@H](CCCCN)NC(=O)[C@H](CCCCN)NC(=O)[C@@H](N)CCCNC(=N)N)C(=O)N1CCC[C@H]1C(=O)N[C@@H](Cc1ccccc1)C(=O)N[C@@H](CCCNC(=N)N)C(=O)N[C@H]1CSSC[C@@H](C(=O)O)NC(=O)[C@H](Cc2ccccc2)NC(=O)[C@H](C)NC(=O)[C@H](C)NC(=O)[C@H](CCCCN)NC1=O [TAT-KOV2] (HELM PEPTIDE1{R.K.K.R.R.Q.R.R.R.G.G.A.A.K.L.P.F.R.C.K.A.A.F.C}$PEPTIDE1,PEPTIDE1,19:R3-24:R3$$$V2.0) | 10.1 | N.I. | 32 | 64 | >128 | >128 | 4 | 4/4 µM | >128 | >128 | 4 | 8 | 16 | 4 | 4 | 4 | 4 | 4 | – | – |
| CC(C)C[C@H](NC(=O)[C@H](CCCCN)NC(=O)[C@H](C)NC(=O)[C@H](C)NC(=O)CNC(=O)CNC(=O)[C@H](CCCNC(=N)N)NC(=O)[C@H](CCCNC(=N)N)NC(=O)[C@H](CCCNC(=N)N)NC(=O)[C@H](CCC(N)=O)NC(=O)[C@H](CCCNC(=N)N)NC(=O)[C@H](CCCNC(=N)N)NC(=O)[C@H](CCCCN)NC(=O)[C@H](CCCCN)NC(=O)[C@@H](N)CCCNC(=N)N)C(=O)N1CCC[C@H]1C(=O)N[C@@H](Cc1ccccc1)C(=O)N[C@@H](CCCNC(=N)N)C(=O)N[C@H]1CSSC[C@@H](C(=O)O)NC(=O)[C@H](Cc2ccccc2)NC(=O)[C@H](C)NC(=O)[C@H](C)NC(=O)[C@H](Cc2ccccc2)NC1=O [TAT-F9-KOV2] (HELM PEPTIDE1{R.K.K.R.R.Q.R.R.R.G.G.A.A.K.L.P.F.R.C.F.A.A.F.C}$PEPTIDE1,PEPTIDE1,19:R3-24:R3$$$V2.0) | – | – | 64 | 128 | >128 | >128 | 8 | 8/8 µM | >128 | >128 | 8 | 16 | 32 | 8 | 8 | 8 | 8 | 8 | N.I. | 2.23 |
| CC(C)C[C@H](NC(=O)[C@H](CCCCN)NC(=O)[C@H](C)NC(=O)[C@H](C)N)C(=O)N1CCC[C@H]1C(=O)N[C@@H](Cc1ccccc1)C(=O)N[C@@H](CCCNC(=N)N)C(=O)N[C@H]1CSSC[C@@H](C(=O)O)NC(=O)[C@H](Cc2ccccc2)NC(=O)[C@H](C)NC(=O)[C@H](C)NC(=O)[C@H](Cc2ccccc2)NC1=O [F9-KOV2] (HELM PEPTIDE1{A.A.K.L.P.F.R.C.F.A.A.F.C}$PEPTIDE1,PEPTIDE1,8:R3-13:R3$$$V2.0) | – | – | >128 | >128 | >128 | >128 | >128 | >128 µM | >128 | >128 | >128 | >128 | >128 | >128 | >128 | >128 | >128 | >128 | N.I. | 2.19 |
| CC(C)C[C@H](NC(=O)[C@H](CCCCN)NC(=O)[C@H](C)NC(=O)[C@H](C)N)C(=O)N1CCC[C@H]1C(=O)N[C@@H](Cc1ccccc1)C(=O)N[C@@H](CCCNC(=N)N)C(=O)N[C@H]1CSSC[C@@H](C(=O)O)NC(=O)[C@H](Cc2ccccc2)NC(=O)[C@H](C)NC(=O)[C@H](C)NC(=O)[C@H](CCCCN)NC1=O [Kunitzin-OV2] (HELM PEPTIDE1{A.A.K.L.P.F.R.C.K.A.A.F.C}$PEPTIDE1,PEPTIDE1,8:R3-13:R3$$$V2.0) | 9.82 | N.I. | >128 | >128 | >128 | >128 | 128 | 128/128 µM | >128 | >128 | >128 | >128 | >128 | >128 | >128 | >128 | >128 | 128 | – | – |
